Assay results as given in the NIST ThermoML archive (doi:10.1016/j.tca.2016.09.005).

Test: xn = mol fraction of the nth substance listed
Details: 100 kPa, Liquid; for speed of sound: Frequency=3 MHz, Sing-around technique in a fixed-path interferometer; for mass density: Vibrating tube method

OCCCO [propan-1,3-diol] + CCO
Details	mass density, 283.15 K [kg/m3]	mass density, 293.15 K [kg/m3]	mass density, 303.15 K [kg/m3]	mass density, 313.15 K [kg/m3]	speed of sound, 283.15 K [m/s]	speed of sound, 293.15 K [m/s]	speed of sound, 303.15 K [m/s]	speed of sound, 313.15 K [m/s]
x2 = 0	1058.85	1052.61	1046.36	1040.07	1659.5	1636.3	1613.6	1591.1
x2 = 0.05	1049.7	1043.39	1037.07	1030.71	1642.4	1618.9	1595.7	1572.9
x2 = 0.1	1040.25	1033.87	1027.48	1021.03	1623.9	1600.1	1576.5	1553.2
x2 = 0.15	1030.34	1023.87	1017.39	1010.85	1605.2	1580.9	1556.8	1533.1
x2 = 0.2	1020.03	1013.44	1006.78	999.86	1585.7	1560.9	1536.5	1511
x2 = 0.2499	1009.63	1003	996.35	989.64	1565.3	1540.2	1515.3	1490.6
x2 = 0.3004	998.62	991.91	985.17	978.36	1544.3	1518.7	1493.3	1468.1
x2 = 0.3502	987.34	980.54	973.69	966.78	1523	1496.8	1470.9	1445.3
x2 = 0.4	975.76	968.84	961.9	954.88	1501	1474.2	1447.8	1421.7
x2 = 0.4501	963.57	956.56	949.5	942.36	1478.2	1450.8	1423.8	1397.1
x2 = 0.5004	950.95	943.82	936.66	929.42	1454.4	1426.5	1399	1371.7
x2 = 0.5501	938.39	931.16	923.88	916.52	1431.2	1402.8	1374.6	1346.8
x2 = 0.6001	924.91	917.56	910.16	902.67	1406.4	1377.6	1348.8	1320.4
x2 = 0.65	911.17	903.69	896.16	888.54	1382.1	1352.5	1323.2	1294.2
x2 = 0.7	896.69	889.09	881.42	873.66	1356.6	1326.3	1296.4	1266.8
x2 = 0.7503	881.71	873.96	866.15	858.23	1331.1	1300.1	1269.4	1239.1
x2 = 0.8001	866.31	858.42	850.47	842.41	1304.9	1273.3	1242	1211.1
x2 = 0.8502	850.07	842.04	833.92	825.7	1278.5	1246.2	1214.2	1182.7
x2 = 0.9	833.71	825.51	817.24	808.85	1252.1	1219	1186.3	1154
x2 = 0.95	816.56	808.22	799.79	791.23	1225.1	1191.3	1157.9	1125

OCCCO [propan-1,3-diol] + CO
Details	mass density, 283.15 K [kg/m3]	mass density, 293.15 K [kg/m3]	mass density, 303.15 K [kg/m3]	mass density, 313.15 K [kg/m3]	speed of sound, 283.15 K [m/s]	speed of sound, 293.15 K [m/s]	speed of sound, 303.15 K [m/s]	speed of sound, 313.15 K [m/s]
x2 = 0	1058.85	1052.61	1046.36	1040.07	1659.5	1636.3	1613.6	1591.1
x2 = 0.05	1052.58	1046.29	1039.98	1033.62	1645.8	1622.5	1599.5	1576.8
x2 = 0.0996	1045.92	1039.56	1033.18	1026.76	1629.2	1605.8	1582.6	1559.7
x2 = 0.1503	1038.75	1032.32	1025.88	1019.37	1613.8	1590.1	1566.8	1543.7
x2 = 0.2	1031.38	1024.87	1018.34	1011.73	1596.8	1572.8	1549.2	1525.8
x2 = 0.2502	1023.44	1016.87	1010.26	1003.55	1578.8	1554.7	1530.8	1507.1
x2 = 0.2998	1015.08	1008.41	1001.72	994.98	1560.7	1536.1	1511.9	1487.9
x2 = 0.3491	1006.18	999.42	992.64	985.81	1540.2	1515.4	1490.9	1466.6
x2 = 0.3998	996.52	989.65	982.76	975.82	1519.5	1494.2	1469.3	1444.7
x2 = 0.4497	986.31	979.34	972.34	965.29	1497	1471.6	1446.3	1421.4
x2 = 0.5	975.38	968.29	961.17	953.99	1474	1448	1422.3	1397
x2 = 0.5501	963.77	956.54	949.29	941.97	1450.2	1423.8	1397.7	1371.9
x2 = 0.5994	951.07	943.69	936.28	928.82	1423.3	1396.4	1369.7	1343.4
x2 = 0.6501	936.86	929.32	921.74	914.15	1394.9	1367.3	1340.1	1313.3
x2 = 0.6998	922.43	914.7	906.94	899.12	1366.9	1338.6	1310.7	1283.3
x2 = 0.7499	906.27	898.33	890.37	882.34	1336	1307.1	1278.5	1250.5
x2 = 0.8	889.44	881.29	873.11	864.86	1305	1275.3	1246.1	1217.4
x2 = 0.8501	869.9	861.5	853.06	844.55	1269.1	1238.8	1208.7	1179.2
x2 = 0.9	849.27	840.58	831.86	823.05	1233.7	1202.3	1171.3	1140.9
x2 = 0.9501	826.76	817.77	808.72	799.59	1196	1164	1132.1	1100.8

OCCCO [propan-1,3-diol] + O
Details	mass density, 283.15 K [kg/m3]	mass density, 293.15 K [kg/m3]	mass density, 303.15 K [kg/m3]	mass density, 313.15 K [kg/m3]	speed of sound, 283.15 K [m/s]	speed of sound, 293.15 K [m/s]	speed of sound, 303.15 K [m/s]	speed of sound, 313.15 K [m/s]
x2 = 0	1058.85	1052.61	1046.36	1040.07	1659.5	1636.3	1613.6	1591.1
x2 = 0.1022	1059.27	1053.04	1046.79	1040.48	1672.9	1650.1	1627.2	1605
x2 = 0.201	1059.47	1053.26	1047.01	1040.68	1686.6	1664	1641.4	1618.9
x2 = 0.2987	1059.49	1053.3	1047.05	1040.7	1702	1679.4	1656.8	1634.1
x2 = 0.3998	1059.07	1052.91	1046.67	1040.3	1717.3	1695.2	1672.8	1650.2
x2 = 0.4997	1057.91	1051.82	1045.61	1039.25	1732	1710.5	1688.7	1666.4
x2 = 0.5997	1055.48	1049.54	1043.42	1037.1	1742.7	1722.7	1701.9	1680.5
x2 = 0.6999	1050.47	1044.85	1039.01	1032.92	1742	1725.1	1707.1	1688.1
x2 = 0.7999	1041.86	1036.89	1031.59	1025.94	1718.2	1707.4	1695	1680.9
x2 = 0.8997	1025.27	1021.75	1017.64	1012.95	1637.8	1641.2	1641.6	1639
